For one assay, the target named is T1, hP2X2/3H (Homo sapiens, UniProt P56373+Q9UBL9).
T1 construct: expressed in transfected cells; host or cells: e.g. HEK293 or 1321N1
T1 sequence (Q9UBL9 1-471): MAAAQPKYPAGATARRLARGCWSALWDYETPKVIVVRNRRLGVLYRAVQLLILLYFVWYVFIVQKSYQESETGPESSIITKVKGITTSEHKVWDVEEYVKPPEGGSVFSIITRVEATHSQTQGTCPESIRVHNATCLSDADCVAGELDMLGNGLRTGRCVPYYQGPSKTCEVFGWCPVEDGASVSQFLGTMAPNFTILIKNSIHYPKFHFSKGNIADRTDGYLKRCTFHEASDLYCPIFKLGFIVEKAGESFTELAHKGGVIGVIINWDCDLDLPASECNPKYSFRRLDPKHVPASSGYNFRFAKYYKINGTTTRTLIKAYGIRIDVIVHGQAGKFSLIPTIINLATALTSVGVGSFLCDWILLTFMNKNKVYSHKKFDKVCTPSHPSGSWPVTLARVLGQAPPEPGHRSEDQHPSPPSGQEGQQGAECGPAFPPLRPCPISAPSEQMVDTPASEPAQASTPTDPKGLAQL
T1 sequence (P56373 1-397): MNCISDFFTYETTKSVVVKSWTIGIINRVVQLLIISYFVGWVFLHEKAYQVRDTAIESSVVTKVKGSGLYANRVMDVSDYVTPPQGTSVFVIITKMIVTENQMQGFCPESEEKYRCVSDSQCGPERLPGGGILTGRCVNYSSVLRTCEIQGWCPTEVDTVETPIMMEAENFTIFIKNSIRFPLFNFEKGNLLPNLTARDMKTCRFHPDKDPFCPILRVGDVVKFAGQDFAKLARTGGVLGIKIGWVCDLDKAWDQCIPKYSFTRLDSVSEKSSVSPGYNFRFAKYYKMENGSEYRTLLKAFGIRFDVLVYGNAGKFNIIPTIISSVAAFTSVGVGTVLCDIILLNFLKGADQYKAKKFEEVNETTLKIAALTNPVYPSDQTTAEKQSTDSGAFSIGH
The assay is described as follows: Calcium uptake assay (P2X antagonist assay), P2X2/3 heteromer. The format is cell-based. Particulars: Ca influx (calcium uptake assay), hP2X2/3H; read-out: IC50 hP2X2/3H. An outline of the steps: (§1)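 Stably or transiently transfected HEK293 or 1321N1 cells; the heteromer is made by adding P2X3 to a P2X2-stable line, with heteromer function isolated pharmacologically. The peak-minus-baseline FLIPR calcium signal gives % inhibition and a 4-parameter-logistic IC50.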

A further assay deals with T2, hP2X3 (Homo sapiens, UniProt P56373).
T2 construct: expressed in transfected cells; host or cells: e.g. HEK293 or 1321N1
T2 sequence (P56373 1-397): T1 sequence (P56373 1-397)
The assay is described as follows: Calcium uptake assay (P2X antagonist assay), P2X3 homomer. The format is cell-based. The conditions noted are these: Ca influx (calcium uptake assay), hP2X3; read-out: IC50 hP2X3. An outline of the steps:
as §1

Where only a bound is given, the exact number is not on record here.

Regarding `Cc1ccc(CNC(=O)c2cc(C(=O)N3CCCC3)cc(-c3ccc(Br)cc3)c2)cn1` [Compound 200, 4′-Bromo-N-((6-methylpyridin-3-yl)methyl)-5-(pyrrolidine-1-carbonyl)biphenyl-3-carboxamide], the IC50 on hP2X2/3H and on hP2X3 was less than 100 nM throughout.

`Cc1ccc(-c2cc(C(=O)NCc3cnc(C)nc3)cc(S(=O)(=O)C(C)C)c2)cc1` [Compound 201]: the IC50 on hP2X2/3H and on hP2X3 was less than 100 nM each time.

For `Cc1ccc(-c2cc(C(=O)NCc3ccc(C)nc3)cc(C(F)(F)F)c2)nc1` [Compound 202], the IC50 was greater than 1000 nM at hP2X2/3H and 100 to 500 nM at hP2X3.

For the compound `[2H]C([2H])([2H])c1ccc(-c2cc(C(=O)NCc3ccc(C)nc3)cc(C(=O)N3CCCC3)c2)cc1` [Compound 203, 4′-Methyl-d3-N-((6-methylpyridin-3-yl)methyl)-5-(pyrrolidine-1-carbonyl)biphenyl-3-carboxamide], the IC50 on hP2X2/3H and at hP2X3 was less than 100 nM in each case.

Take `Cc1ccc(-c2cc(C(=O)NCc3ccc(C)nc3)cc(C(F)(F)F)c2)cc1` [Compound 204]: the IC50 on hP2X2/3H was 501 to 1000 nM; on hP2X3, greater than 1000 nM.

As to `Cc1ccc(-c2cc(C(=O)N[C@H](CCO)c3ccc(C)nc3)cc(S(C)(=O)=O)c2)cc1` [Compound 205], the IC50 on hP2X2/3H and at hP2X3 was less than 100 nM in each case.

With `COc1ccc([C@@H](CO)NC(=O)c2cc(-c3ccc(C)cc3)cc(S(C)(=O)=O)c2)cn1` [Compound 206, (S)—N-(2-Hydroxy-1-(6-methoxypyridin-3-yl)ethyl)-4′-methyl-5-(methylsulfonyl)biphenyl-3-carboxamide], the IC50 at hP2X2/3H and at hP2X3 was less than 100 nM throughout.

As to `Cc1ccc(-c2cc(C(=O)N[C@H](CO)c3ccc(C(F)F)nc3)cc(S(C)(=O)=O)c2)cc1` [Compound 207], the IC50 on hP2X2/3H and on hP2X3 was less than 100 nM throughout.

As to `Cc1ccc(-c2cc(C(=O)NCc3ccc(C)[n+]([O-])c3)cc(C(O)CN3CCCC3)c2)cc1` (stereo not drawn) [Compound 208], the results for the IC50 on hP2X2/3H and at hP2X3 were 100 to 500 nM and less than 100 nM, respectively.

`CCS(=O)(=O)c1cc(C(=O)N[C@H](C)c2ccc(C)nc2)cc(-c2ccc(C)cc2)c1` [Compound 209]: the IC50 at hP2X2/3H and on hP2X3 was less than 100 nM each time.

As to `CCS(=O)(=O)c1cc(C(=O)N[C@H](C)c2cnc(C)nc2)cc(-c2ccc(C)cc2)c1` [Compound 210], the IC50 at hP2X2/3H and on hP2X3 was less than 100 nM each time.

Take `CCS(=O)(=O)c1cc(C(=O)NCc2ccc(C)nc2)cc(-c2ccc(C)cc2)c1` [Compound 211]: the IC50 at hP2X2/3H and on hP2X3 was less than 100 nM each time.

`CCS(=O)(=O)c1cc(C(=O)NCc2cnc(C)nc2)cc(-c2ccc(C)cc2)c1` [Compound 212]: the IC50 at hP2X2/3H and on hP2X3 was less than 100 nM each time.

As for `Cc1ccc(-c2cc(C(=O)NC(c3ccc(C)nc3)C(F)(F)F)cc(S(C)(=O)=O)c2)cc1` (stereo not drawn) [Compound 213], the IC50 at hP2X2/3H and on hP2X3 was greater than 1000 nM throughout.

In the case of `Cc1ccc(-c2cc(C(=O)NC(c3ccc(C)nc3)C(F)(F)F)cc(C(=O)N3CCCC3)c2)cc1` (stereo not drawn) [Compound 214], the IC50 on hP2X2/3H and at hP2X3 was greater than 1000 nM in each case.

As to `Cc1ncc(CNC(=O)c2cc(C(=O)N3CCCC3)cc(-c3ccc(Br)cc3)c2)cn1` [Compound 215], the IC50 at hP2X2/3H is 100 to 500 nM; at hP2X3, less than 100 nM.

Turning to `Cc1ncc([C@@H](C)NC(=O)c2cc(C(=O)N3CCCC3)cc(-c3ccc(Br)cc3)c2)cn1` [Compound 216], the IC50 at hP2X2/3H and at hP2X3 was less than 100 nM throughout.

`Cc1ccc([C@@H](C)NC(=O)c2cc(C(=O)N3CCCC3)cc(-c3ccc(Br)cc3)c2)cn1` [Compound 217]: the IC50 at hP2X2/3H and at hP2X3 was less than 100 nM throughout.

In the case of `Cc1ccc(-c2cc(C(=O)N[C@H](C)c3ccc(C)nc3)cc(S(=O)(=O)C3CCCC3)c2)cc1` [Compound 218], the IC50 at hP2X2/3H and on hP2X3 was less than 100 nM in each case.

As to `Cc1ccc(-c2cc(C(=O)N[C@H](C)c3cnc(C)nc3)cc(S(=O)(=O)C3CCCC3)c2)cc1` [Compound 219, (R)-5-(Cyclopentylsulfonyl)-4′-methyl-N-(1-(2-methylpyrimidin-5-yl)ethyl)biphenyl-3-carboxamide], the IC50 at hP2X2/3H and on hP2X3 was less than 100 nM each time.

Turning to `Cc1ccc(-c2cc(OC(F)(F)F)cc(C(=O)NCc3ccc(C)nc3)c2)nc1` [Compound 220, 3-(5-Methylpyridin-2-yl)-N-((6-methylpyridin-3-yl)methyl)-5-(trifluoromethoxy)benzamide], the figures for the IC50 at hP2X2/3H and at hP2X3 were greater than 1000 nM and 100 to 500 nM, respectively.

Turning to `Cc1ccc(-c2cc(C(=O)N[C@H](CO)c3cnc(C)nc3)cc(S(C)(=O)=O)c2)cc1` [Compound 221, (S)—N-(2-Hydroxy-1-(2-methylpyrimidin-5-yl)ethyl)-4′-methyl-5-(methylsulfonyl)biphenyl-3-carboxamide], the IC50 at hP2X2/3H and at hP2X3 was less than 100 nM in each case.

In the case of `COc1ccc([C@@H](CCO)NC(=O)c2cc(-c3ccc(C)cc3)cc(S(C)(=O)=O)c2)cn1` [Compound 222], the IC50 on hP2X2/3H and on hP2X3 was less than 100 nM in each case.

As for `Cc1ccc(-c2cc(C(=O)N[C@H](CCO)c3ccc(C(F)(F)F)nc3)cc(S(C)(=O)=O)c2)cc1` [Compound 223], the IC50 at hP2X2/3H was 100 to 500 nM; at hP2X3 it was less than 100 nM.

On to `Cc1ccc(-c2cc(C(=O)NCc3ccc(C)[n+]([O-])c3)cc(C(=O)N3CCCC3)c2)cc1` [Compound 224, 2-Methyl-5-((4′-methyl-5-(pyrrolidine-1-carbonyl)biphenyl-3-ylcarboxamido)methyl)pyridine 1-oxide], for which the IC50 at hP2X2/3H and on hP2X3 was less than 100 nM throughout.

Consider `COc1cc(C(=O)N[C@H](C)c2cnc(C)nc2)cc(-c2ccc(C)cn2)c1` [Compound 225, (R)-3-Methoxy-5-(5-methylpyridin-2-yl)-N-(1-(2-methylpyrimidin-5-yl)ethyl)benzamide], for which the IC50 on hP2X2/3H is 100 to 500 nM; at hP2X3, less than 100 nM.

`Cc1ccc(-c2cc(C(=O)N[C@H](CO)c3ccc(C(F)(F)F)nc3)cc(S(C)(=O)=O)c2)cc1` [Compound 226]: the IC50 at hP2X2/3H is 100 to 500 nM; at hP2X3, less than 100 nM.

For `Cc1ccc(-c2cc(C(=O)N[C@H](C)c3ccc(C)nc3)cc(C(O)c3ccccc3)c2)cc1` (stereo partly drawn) [Compound 227, 5-(Hydroxy(phenyl)methyl)-4′-methyl-N—((R)-1-(6-methylpyridin-3-yl)ethyl)biphenyl-3-carboxamide], the IC50 on hP2X2/3H is less than 100 nM; on hP2X3, 100 to 500 nM.

As to `Cc1ccc(-c2cc(C(=O)NCc3ccc(C)nc3)cc(C(O)c3ccccc3)c2)cc1` (stereo not drawn) [Compound 228], the IC50 on hP2X2/3H and on hP2X3 was 100 to 500 nM in each case.

Regarding `Cc1ccc(-c2cc(C(=O)N[C@H](C)c3ccc(C)nc3)cc(C(=O)c3ccccc3)c2)cc1` [Compound 229, (R)-5-Benzoyl-4′-methyl-N-(1-(6-methylpyridin-3-yl)ethyl)biphenyl-3-carboxamide], the IC50 on hP2X2/3H was less than 100 nM; on hP2X3 it was 100 to 500 nM.

Regarding `Cc1ccc(-c2cc(C(=O)NCc3ccc(C)nc3)cc(C(O)CN3CCCC3)c2)cc1` (stereo not drawn) [Compound 230], the values for the IC50 at hP2X2/3H and at hP2X3 were 100 to 500 nM and less than 100 nM, respectively.

`Cc1ccc(-c2cc(C(=O)NCc3cnc4[nH]ccc4c3)cc(C(=O)N3CCCC3)c2)cc1` [Compound 231]: the IC50 at hP2X2/3H and at hP2X3 was greater than 1000 nM throughout.

With `Cc1ccc(-c2cc(Oc3ncccn3)cc(C(=O)N[C@H](C)c3ccc(C)nc3)c2)cc1` [Compound 232, (R)-4′-Methyl-N-(1-(6-methylpyridin-3-yl)ethyl)-5-(pyrimidin-2-yloxy)biphenyl-3-carboxamide], the IC50 on hP2X2/3H and at hP2X3 was less than 100 nM each time.

With `Cc1ccc(-c2cc(Oc3ncccn3)cc(C(=O)NCc3ccc(C)nc3)c2)cc1` [Compound 233], the IC50 at hP2X2/3H and at hP2X3 was 100 to 500 nM in each case.

As to `Cc1ccc(-c2cc(Oc3ncccn3)cc(C(=O)NCc3cnc(C)nc3)c2)cc1` [Compound 234], the IC50 lay in the range of 501 to 1000 nM at hP2X2/3H and 100 to 500 nM on hP2X3.

For `Cc1ccc(-c2cc(Oc3ncccn3)cc(C(=O)N[C@H](C)c3cnc(C)nc3)c2)cc1` [Compound 235], the IC50 is 100 to 500 nM on hP2X2/3H and less than 100 nM on hP2X3.

The record behind these values is US8946439B2, “Amide compounds, compositions and uses thereof” (Evotec AG, priority 2008, dated 2015).
